{"source": "patent US11267812B2", "about": "(Mirati Therapeutics, Inc., priority 2016, dated 2022)"}
{"target": "KRas G12C (Homo sapiens, UniProt P01116, C118S/C51S/C80L/G12C)", "test": "KRas G12C Modification Assay (LCMS detection of covalent adduct)", "type": "binding", "conditions": "5 μM compound, 3 hours", "experimental": "A 10 μL aliquot of each protein solution was then transferred to a 384 well microtiter plate. Initial compound stocks were generated at fifty times their desired final assay concentration in DMSO.\nExemplary compounds of Formula (I) were diluted 25-fold into K-Ras Assay Buffer to a final of two times their final concentration. A 10 μL aliquot of each diluted compound solution was then added to each of the protein solutions in the microtiter plate to initiate reaction. […] At each time point, the reactions were quenched with 20 μL of a 25 mM acetic acid solution. […] Once all reactions were quenched, the plates were heat sealed and the samples were injected into a LC/MS system for data acquisition.\nSamples were injected in their liquid phase onto a C-3 reverse phase column to remove assay buffer and prepare the samples for mass spectrometer. The proteins were eluted from the column using an acetonitrile gradient and fed directly into the mass analyzer. Initial raw data analysis took place in Agilent MassHunter software immediately post data acquisition.\nRaw data analysis of the intact protein was exclusively a deconvolution of the multiple charge states of each protein in solution using a maximum entropy deconvolution provided in Mass Hunter. To minimize complexity, only the data over limited mass ranges were considered for analysis, with a minimum of one Dalton mass step intervals. The heights of all masses identified during raw data analysis were exported to be further analyzed in Spotfire® data analysis software.\nFinal data analysis was a multistep process in the Spotfire® data analysis software package. Briefly, each protein mass was calculated as a percent of the total signal of that sample, that percentage was then normalized to the percentage of signal of the protein in the absence of reactive compounds. Those normalized signals were reported as normalized percent of control (POC). […] Key: “A”≤25% POC; “B”>25% POC≤50% POC; “C”>50% POC and ND=not determined."}
{"compound": "C=CC(=O)N1CCN(c2nc(OCCCN3CCOCC3)nc3c2CCN(c2cc(O)cc4cc(C)[nH]c24)C3)CC1", "note": "[Example 167, 1-(4-(7-(5-hydroxy-2-methyl-1H-indol-7-yl)-2-(3-morpholinopropoxy)-5,6,7,8-tetrahydropyrido[3,4-d]pyrimidin-4-yl)piperazin-1-yl)prop-2-en-1-one]", "POC (normalized percent of control, KRas G12C modification)": "B (“B”>25% POC≤50% POC)"}
{"compound": "C=CC(=O)N1CCN(c2nc(OCCCN3CCOCC3)nc3c2CCN(c2c(C)c(O)cc4ccccc24)C3)CC1", "note": "[Example 173, 1-(4-(7-(3-hydroxy-2-methylnaphthalen-1-yl)-2-(3-morpholinopropoxy)-5,6,7,8-tetrahydropyrido[3,4-d]pyrimidin-4-yl)piperazin-1-yl)prop-2-en-1-one]", "POC (normalized percent of control, KRas G12C modification)": "C (“C”>50% POC)"}
{"compound": "C=CC(=O)N1CCN(c2nc(OC[C@@H]3CCCN3C)nc3c2CCN(c2ccccc2C(C)C)C3)CC1", "note": "[Example 158, 1-[4-[7-(2-isopropylphenyl)-2-[[(2S)-1-methylpyrrolidin-2-yl]methoxy]-6,8-dihydro-5H-pyrido[3,4-d]pyrimidin-4-yl]piperazin-1-yl]prop-2-en-1-one]", "POC (normalized percent of control, KRas G12C modification)": "C (“C”>50% POC)"}
{"compound": "C=CC(=O)N1CCN(c2nc(OCCCN3CCOCC3)nc3c2CCN(c2cc(O)cc4sc(C)nc24)C3)CC1", "note": "[Example 166, 1-[4-[7-(6-hydroxy-2-methyl-1,3-benzothiazol-4-yl)-2-(3-morpholinopropoxy)-6,8-dihydro-5H-pyrido[3,4-d]pyrimidin-4-yl]piperazin-1-yl]prop-2-en-1-one]", "POC (normalized percent of control, KRas G12C modification)": "B (“B”>25% POC≤50% POC)"}
{"compound": "C=CC(=O)N1CCN(c2nc(OCCCN3CCOCC3)nc3c2CCN(c2cc(O)cc4cccnc24)C3)CC1", "note": "[Example 205, 1-(4-(7-(6-hydroxyquinolin-8-yl)-2-(3-morpholinopropoxy)-5,6,7,8-tetrahydropyrido[3,4-d]pyrimidin-4-yl)piperazin-1-yl)prop-2-en-1-one]", "POC (normalized percent of control, KRas G12C modification)": "C (“C”>50% POC)"}
{"test_system": "Phospho-ERK in NCI-H358 cells expressing KRas G12C", "test": "Cellular inhibition of KRas G12C by Phospho-ERK measurement in NCI-H358 cells", "type": "cell-based", "conditions": "Homo sapiens; NCI-H358 cells, 3 hours compound treatment; read-out: IC50 (pERK(Thr202/Tyr204) normalized with GAPDH)", "procedure,_shortened": "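After 8–12 h attachment, NCI-H358 cells were treated with compounds for 3 h (0.5% DMSO final), fixed, methanol-permeabilized and immunostained. pERK(Thr202/Tyr204) was read by infrared imaging and normalized to GAPDH as percent of DMSO control. IC50 came from a 4-parameter fit.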", "units": {"IC50": "nM"}}
{"compound": "C=CC(=O)N1CCN(c2nc(OC[C@@H]3CCCCN3C)nc3c2CCN(c2cc(O)cc4ccccc24)C3)CC1", "note": "[Example 196, (S)-1-(4-(7-(3-hydroxynaphthalen-1-yl)-2-((1-methylpiperidin-2-yl)methoxy)-5,6,7,8-tetrahydropyrido[3,4-d]pyrimidin-4-yl)piperazin-1-yl)prop-2-en-1-one]", "IC50": "1 to 1000"}
{"compound": "C=CC(=O)N1CCN(c2nc(OC[C@@H]3CCCN3C)nc3c2CCN(c2cccc(F)c2C(F)(F)F)C3)CC1CC#N", "note": "(stereo partly drawn) [Example 230, 2-(1-acryloyl-4-(7-(3-fluoro-2-(trifluoromethyl)phenyl)-2-(((S)-1-methylpyrrolidin-2-yl)methoxy)-5,6,7,8-tetrahydropyrido[3,4-d]pyrimidin-4-yl)piperazin-2-yl)acetonitrile]", "IC50": "1 to 1000"}
{"compound": "C=CC(=O)N1CCN(c2nc(OCCN3CCCC[C@@H]3C)nc3c2CCN(c2cc(O)cc4ccccc24)C3)CC1", "note": "[Example 88, (S)-1-(4-(7-(3-hydroxynaphthalen-1-yl)-2-(2-(2-methylpiperidin-1-yl)ethoxy)-5,6,7,8-tetrahydropyrido[3,4-d]pyrimidin-4-yl)piperazin-1-yl)prop-2-en-1-one]", "IC50": "1 to 1000"}
{"compound": "C=CC(=O)N1CCN(c2nc(O[C@H](C)CN3CCCCC3)nc3c2CCN(c2cc(O)cc4ccccc24)C3)CC1", "note": "[Example 75, (R)-1-(4-(7-(3-hydroxynaphthalen-1-yl)-2-((1-(piperidin-1-yl)propan-2-yl)oxy)-5,6,7,8-tetrahydropyrido[3,4-d]pyrimidin-4-yl)piperazin-1-yl)prop-2-en-1-one]", "IC50": "1 to 1000"}
{"compound": "C=CC(=O)N1CCN(c2nc(OCC(C)(C)N(C)C)nc3c2CCN(c2cccc4ccccc24)C3)CC1CC#N", "note": "(stereo not shown) [Example 269, 2-(1-acryloyl-4-(2-(2-(dimethylamino)-2-methylpropoxy)-7-(naphthalen-1-yl)-5,6,7,8-tetrahydropyrido[3,4-d]pyrimidin-4-yl)piperazin-2-yl)acetonitrile]", "IC50": "1 to 1000"}
{"compound": "C=CC(=O)N1CCN(c2nc(OCCCN3CCOCC3)nc3c2CCN(c2cc(O)ccc2OC(F)(F)F)C3)CC1", "note": "[Example 90, 1-(4-(7-(5-hydroxy-2-(trifluoromethoxy)phenyl)-2-(3-morpholinopropoxy)-5,6,7,8-tetrahydropyrido[3,4-d]pyrimidin-4-yl)piperazin-1-yl)prop-2-en-1-one]", "IC50": "1 to 1000"}
{"compound": "C=CC(=O)N1CCN(c2nc(OC[C@@H]3CCCN3CC)nc3c2CCN(c2cccc4ccccc24)C3)CC1CC#N", "note": "(stereo partly drawn) [Example 233, 2-(1-acryloyl-4-(2-(((S)-1-ethylpyrrolidin-2-yl)methoxy)-7-(naphthalen-1-yl)-5,6,7,8-tetrahydropyrido[3,4-d]pyrimidin-4-yl)piperazin-2-yl)acetonitrile]", "IC50": "1 to 1000"}
{"compound": "C=CC(=O)N1CCN(c2nc(O[C@H](C)CN3CCOCC3)nc3c2CCN(c2cc(O)cc4ccccc24)C3)CC1", "note": "[Example 56, (R)-1-(4-(7-(3-hydroxynaphthalen-1-yl)-2-((1-morpholinopropan-2-yl)oxy)-5,6,7,8-tetrahydropyrido[3,4-d]pyrimidin-4-yl)piperazin-1-yl)prop-2-en-1-one]", "IC50": "1 to 1000"}
{"compound": "C=CC(=O)N1CCN(c2nc(O[C@@H]3CCCN(C)C3)nc3c2CCN(c2cc(O)cc4ccccc24)C3)CC1", "note": "[Example 67, (R)-1-(4-(7-(3-hydroxynaphthalen-1-yl)-2-((1-methylpiperidin-3-yl)oxy)-5,6,7,8-tetrahydropyrido[3,4-d]pyrimidin-4-yl)piperazin-1-yl)prop-2-en-1-one]", "IC50": "1 to 1000"}
{"compound": "C=CC(=O)N1CCN(c2nc(OCC(CO)N(C)C)nc3c2CCN(c2cc(O)cc4ccccc24)C3)CC1", "note": "(stereo not shown) [Example 55, 1-(4-(2-(2-(dimethylamino)-3-hydroxypropoxy)-7-(3-hydroxynaphthalen-1-yl)-5,6,7,8-tetrahydropyrido[3,4-d]pyrimidin-4-yl)piperazin-1-yl)prop-2-en-1-one]", "IC50": "1 to 1000"}
{"compound": "C=CC(=O)N1CCN(c2nc(OCCCN3C[C@@H]4C[C@H]3CO4)nc3c2CCN(c2cccc4ccccc24)C3)CC1CC#N", "note": "(stereo partly drawn) [Example 154, 2-[4-[7-(1-naphthyl)-2-[3-[(1S,4S)-2-oxa-5-azabicyclo[2.2.1]heptan-5-yl]propoxy]-6,8-dihydro-5H-pyrido[3,4-d]pyrimidin-4-yl]-1-prop-2-enoyl-piperazin-2-yl]acetonitrile]", "IC50": "1 to 1000"}
{"compound": "C=CC(=O)N1CCN(c2nc(OC[C@H]3CN(C)CCO3)nc3c2CCN(c2cccc4ccccc24)C3)CC1CC#N", "note": "(stereo partly drawn) [Example 270, 2-(1-acryloyl-4-(2-(((R)-4-methylmorpholin-2-yl)methoxy)-7-(naphthalen-1-yl)-5,6,7,8-tetrahydropyrido[3,4-d]pyrimidin-4-yl)piperazin-2-yl)acetonitrile]", "IC50": "1 to 1000"}
{"compound": "C=CC(=O)N1CCN(c2nc(O[C@@H](C)[C@@H]3CCCN3C)nc3c2CCN(c2cc(O)cc4ccccc24)C3)CC1", "note": "[Example 130, 1-(4-(7-(3-hydroxynaphthalen-1-yl)-2-((S)-1-((S)-1-methylpyrrolidin-2-yl)ethoxy)-5,6,7,8-tetrahydropyrido[3,4-d]pyrimidin-4-yl)piperazin-1-yl)prop-2-en-1-one]", "IC50": "1 to 1000"}
{"compound": "C=CC(=O)N1CCN(c2nc(OC[C@@H]3CCCN3C)nc3c2CCN(c2ccc(F)c4ccccc24)C3)CC1CC#N", "note": "(stereo partly drawn) [Example 246, 2-[4-[7-(4-fluoro-1-naphthyl)-2-[[(2S)-1-methylpyrrolidin-2-yl]methoxy]-6,8-dihydro-5H-pyrido[3,4-d]pyrimidin-4-yl]-1-prop-2-enoyl-piperazin-2-yl]acetonitrile]", "IC50": "1 to 1000"}
{"compound": "C=CC(=O)N1CCN(c2nc(OC[C@@H]3CCN(C)C3)nc3c2CCN(c2cc(O)cc4ccccc24)C3)CC1", "note": "[Example 110, (R)-1-(4-(7-(3-hydroxynaphthalen-1-yl)-2-((1-methylpyrrolidin-3-yl)methoxy)-5,6,7,8-tetrahydropyrido[3,4-d]pyrimidin-4-yl)piperazin-1-yl)prop-2-en-1-one]", "IC50": "1 to 1000"}
{"compound": "C=CC(=O)N1CCN(c2nc(OCCCN3C[C@@H]4C[C@H]3CO4)nc3c2CCN(c2cc(O)cc4ccccc24)C3)CC1", "note": "[Example 104, 1-(4-(2-(3-((1S,4S)-2-oxa-5-azabicyclo[2.2.1]heptan-5-yl)propoxy)-7-(3-hydroxynaphthalen-1-yl)-5,6,7,8-tetrahydropyrido[3,4-d]pyrimidin-4-yl)piperazin-1-yl)prop-2-en-1-one]", "IC50": "1 to 1000"}
{"compound": "C=CC(=O)N1CCN(c2nc(OC[C@@H]3CCCN3C)nc3c2CCN(c2ccccc2OC(F)(F)F)C3)CC1CC#N", "note": "(stereo partly drawn) [Example 211, 2-(1-acryloyl-4-(2-(((S)-1-methylpyrrolidin-2-yl)methoxy)-7-(2-(trifluoromethoxy)phenyl)-5,6,7,8-tetrahydropyrido[3,4-d]pyrimidin-4-yl)piperazin-2-yl)acetonitrile]", "IC50": "1 to 1000"}
